# Results taken from patent publication US20120029187A1, “HALOALKYLSULFONANILIDE DERIVATIVE” (Nissan Chemical Industries, Ltd., priority 2009, published 2012).
# How the values were obtained:
# Type in all cases: in vivo
# [1] = test system: barnyardgrass; assay: Test Example 1: herbicidal effects in preemergence treatment under submerged conditions; conditions: dose 2.52 g/a
# Source text: (§1) Test on the Herbicidal Effects in Preemergence Treatment on Weeds Under Submerged Conditions
# (§2) Alluvial soil was put in 1/30000-are styrol cups and admixed with water so that it was submerged at a depth of 4 cm. In each cup, seeds of barnyardgrass, bulrush and ducksalad were sown together, and rice seedlings at the 2.5-leaf stage were transplanted. On the same day as the seeding, emulsifiable concentrates containing compounds of the present invention formulated in accordance with Formulation Example 2 were applied to the water surfaces at predetermined doses after diluted with water. The cups were placed in a greenhouse at 25 to 30° C. to grow the plants. Three weeks after the application, the herbicidal effects against various plants were determined on the following evaluation scale.
# (§3) 5 mortality of 90% or above (nearly complete death)
# (§4) 4 mortality of at least 70% and less than 90%
# (§5) 3 mortality of at least 40% and less than 70%
# (§6) 2 mortality of at least 20% and less than 40%
# (§7) 1 mortality of at least 5% and less than 20%
# (§8) 0 mortality of less than 5% (almost ineffective)
# (§9) A: barnyardgrass, B: bulrush, C: ducksalad, D: large crabgrass, E: giant foxtail, F: wild oat, G: water foxtail, H: Italian ryegrass, I: velvetleaf, J: common ragweed, K: redroot pigweed, L: common lambsquater, M: posumbu knotweed, N: common chickweed, O: beadstraw, a: transplanted rice, b: corn, c: soybean, d: direct-seeded rice, e: wheat, f: sugar beet.
# (§10) The doses (g/a) represents the amounts in g per 1 are (a) applied after adjustment of concentration adjustment.
# [2] = test system: bulrush; assay: as above; conditions: dose 2.52 g/a
# Source text: as §1, §2, §3, §4, §5, §6, §7, §8, §9, §10
# [3] = test system: ducksalad; assay: as above; conditions: dose 2.52 g/a
# Source text: as §1, §2, §3, §4, §5, §6, §7, §8, §9, §10
# [4] = test system: transplanted rice; assay: Test Example 1: preemergence treatment under submerged conditions, effect on crop; conditions: dose 2.52 g/a
# Source text: as §1, §2, §3, §4, §5, §6, §7, §8, §9, §10
# [5] = test system: barnyardgrass; assay: Test Example 2: herbicidal effects during the vegetation period under submerged conditions; conditions: treatment during the vegetation period under submerged conditions; dose 2.52 g/a
# Procedure: (§11) Test on the Herbicidal Effects on Weeds During the Vegetation Period Under Submerged Conditions
# (§12) Alluvial soil was put in 1/30000-are styrol cups and admixed with water so that it was submerged at a depth of 4 cm. In each cup, seeds of barnyardgrass, bulrush and ducksalad were sown together, and the cups were placed in a greenhouse at 25 to 30° C. to grow the plants. When the barnyardgrass, bulrush and ducksalad reached the 1- or 2-leaf stage, emulsifiable concentrates containing compounds of the present invention formulated in accordance with Formulation Example 2 were applied to the water surfaces at predetermined doses after diluted with water. Three weeks after the application, the herbicidal effects against various plants were determined on the same evaluation scale as in Test Example 1.
# as §9, §10
# [6] = test system: bulrush; assay: as above; conditions: treatment during the vegetation period under submerged conditions; dose 2.52 g/a
# Procedure: as §11, §12, §9, §10
# [7] = test system: ducksalad; assay: as above; conditions: treatment during the vegetation period under submerged conditions; dose 2.52 g/a
# Procedure: as §11, §12, §9, §10
# [8] = test system: Italian ryegrass; assay: Test Example 3: herbicidal effects in soil treatment; conditions: dose 3.2 g/a
# Source text: (§13) Test on the Herbicidal Effects in Soil Treatment
# (§14) Sterilized diluvial soil was put in plastic boxes with a length of 21 cm, a width of 13 cm and a depth of 7 cm, and seeds of barnyardgrass, large crabgrass, giant foxtail, wild oat, blackgrass, velvetleaf, common ragweed, redroot pigweed, common lambsquater, posumbu knotweed, common chickweed corn, soybean, rice, wheat and sugar beet were sown in spots and covered with an about 1.5 cm-thick soil layer. Emulsifiable concentrates containing compounds of the present invention formulated in accordance with Formulation Example 2 were uniformly applied to the soil surfaces at predetermined doses through a small sprayer after dilute with water. Three weeks after the application, the herbicidal effects against various plants were determined on the same evaluation scale as in Test Example 1.
# as §9, §10
# [9] = test system: barnyardgrass; assay: as above; conditions: dose 3.2 g/a
# Source text: as §13, §14, §9, §10
# [10] = test system: common chickweed; assay: as above; conditions: dose 3.2 g/a
# Source text: as §13, §14, §9, §10
# [11] = test system: common lambsquater; assay: as above; conditions: dose 3.2 g/a
# Source text: as §13, §14, §9, §10
# [12] = test system: common ragweed; assay: as above; conditions: dose 3.2 g/a
# Source text: as §13, §14, §9, §10
# [13] = test system: giant foxtail; assay: as above; conditions: dose 3.2 g/a
# Source text: as §13, §14, §9, §10
# [14] = test system: large crabgrass; assay: as above; conditions: dose 3.2 g/a
# Source text: as §13, §14, §9, §10
# [15] = test system: posumbu knotweed; assay: as above; conditions: dose 3.2 g/a
# Source text: as §13, §14, §9, §10
# [16] = test system: redroot pigweed; assay: as above; conditions: dose 3.2 g/a
# Source text: as §13, §14, §9, §10
# [17] = test system: water foxtail; assay: as above; conditions: dose 3.2 g/a
# Source text: as §13, §14, §9, §10
# [18] = test system: Italian ryegrass; assay: Test Example 4: herbicidal effect in foliage treatment; conditions: dose 3.2 g/a, three weeks after application
# Source text: (§15) Test on the Herbicidal Effect in Foliage Treatment
# as §14, with “chickweed,” for “chickweed”, “The boxes were placed in a greenhouse at 25 to 30° C. to grow the plants. After 14 days, emulsifiable” for “Emulsifiable”, “foliage” for “soil surfaces”, “diluted” for “dilute”
# as §9, §10
# [19] = test system: barnyardgrass; assay: as above; conditions: dose 3.2 g/a, three weeks after application
# Source text: as §15
# as §14, with “chickweed,” for “chickweed”, “The boxes were placed in a greenhouse at 25 to 30° C. to grow the plants. After 14 days, emulsifiable” for “Emulsifiable”, “foliage” for “soil surfaces”, “diluted” for “dilute”
# as §9, §10
# [20] = test system: beadstraw; assay: as above; conditions: dose 3.2 g/a, three weeks after application
# Source text: as §15
# as §14, with “chickweed,” for “chickweed”, “The boxes were placed in a greenhouse at 25 to 30° C. to grow the plants. After 14 days, emulsifiable” for “Emulsifiable”, “foliage” for “soil surfaces”, “diluted” for “dilute”
# as §9, §10
# [21] = test system: common chickweed; assay: as above; conditions: dose 3.2 g/a, three weeks after application
# Source text: as §15
# as §14, with “chickweed,” for “chickweed”, “The boxes were placed in a greenhouse at 25 to 30° C. to grow the plants. After 14 days, emulsifiable” for “Emulsifiable”, “foliage” for “soil surfaces”, “diluted” for “dilute”
# as §9, §10
# [22] = test system: common lambsquater; assay: as above; conditions: dose 3.2 g/a, three weeks after application
# Source text: as §15
# as §14, with “chickweed,” for “chickweed”, “The boxes were placed in a greenhouse at 25 to 30° C. to grow the plants. After 14 days, emulsifiable” for “Emulsifiable”, “foliage” for “soil surfaces”, “diluted” for “dilute”
# as §9, §10
# [23] = test system: common ragweed; assay: as above; conditions: dose 3.2 g/a, three weeks after application
# Source text: as §15
# as §14, with “chickweed,” for “chickweed”, “The boxes were placed in a greenhouse at 25 to 30° C. to grow the plants. After 14 days, emulsifiable” for “Emulsifiable”, “foliage” for “soil surfaces”, “diluted” for “dilute”
# as §9, §10
# [24] = test system: giant foxtail; assay: as above; conditions: dose 3.2 g/a, three weeks after application
# Source text: as §15
# as §14, with “chickweed,” for “chickweed”, “The boxes were placed in a greenhouse at 25 to 30° C. to grow the plants. After 14 days, emulsifiable” for “Emulsifiable”, “foliage” for “soil surfaces”, “diluted” for “dilute”
# as §9, §10
# [25] = test system: large crabgrass; assay: as above; conditions: dose 3.2 g/a, three weeks after application
# Source text: as §15
# as §14, with “chickweed,” for “chickweed”, “The boxes were placed in a greenhouse at 25 to 30° C. to grow the plants. After 14 days, emulsifiable” for “Emulsifiable”, “foliage” for “soil surfaces”, “diluted” for “dilute”
# as §9, §10
# [26] = test system: posumbu knotweed; assay: as above; conditions: dose 3.2 g/a, three weeks after application
# Source text: as §15
# as §14, with “chickweed,” for “chickweed”, “The boxes were placed in a greenhouse at 25 to 30° C. to grow the plants. After 14 days, emulsifiable” for “Emulsifiable”, “foliage” for “soil surfaces”, “diluted” for “dilute”
# as §9, §10
# [27] = test system: redroot pigweed; assay: as above; conditions: dose 3.2 g/a, three weeks after application
# Source text: as §15
# as §14, with “chickweed,” for “chickweed”, “The boxes were placed in a greenhouse at 25 to 30° C. to grow the plants. After 14 days, emulsifiable” for “Emulsifiable”, “foliage” for “soil surfaces”, “diluted” for “dilute”
# as §9, §10
# [28] = test system: velvetleaf; assay: as above; conditions: dose 3.2 g/a, three weeks after application
# Source text: as §15
# as §14, with “chickweed,” for “chickweed”, “The boxes were placed in a greenhouse at 25 to 30° C. to grow the plants. After 14 days, emulsifiable” for “Emulsifiable”, “foliage” for “soil surfaces”, “diluted” for “dilute”
# as §9, §10
# [29] = test system: water foxtail; assay: as above; conditions: dose 3.2 g/a, three weeks after application
# Source text: as §15
# as §14, with “chickweed,” for “chickweed”, “The boxes were placed in a greenhouse at 25 to 30° C. to grow the plants. After 14 days, emulsifiable” for “Emulsifiable”, “foliage” for “soil surfaces”, “diluted” for “dilute”
# as §9, §10
structure (smiles),measurement,setting,value
CC(C)COC(=O)N(c1ccccc1CN1COC(C)(C(F)(F)F)CC1=O)S(=O)(=O)C(F)(F)F (centres unmarked) [II-50],"A: barnyardgrass, herbicidal effect (evaluation scale 0-5)",[1],5 (mortality of 90% or above (nearly complete death))
same,"B: bulrush, herbicidal effect (evaluation scale 0-5)",[2],5 (mortality of 90% or above (nearly complete death))
same,"C: ducksalad, herbicidal effect (evaluation scale 0-5)",[3],5 (mortality of 90% or above (nearly complete death))
same,"a: transplanted rice, effect on crop (evaluation scale 0-5)",[4],0 (mortality of less than 5% (almost ineffective))
same,"A: barnyardgrass, herbicidal effect (evaluation scale 0-5)",[5],5 (mortality of 90% or above (nearly complete death))
same,"B: bulrush, herbicidal effect (evaluation scale 0-5)",[6],5 (mortality of 90% or above (nearly complete death))
same,"C: ducksalad, herbicidal effect (evaluation scale 0-5)",[7],5 (mortality of 90% or above (nearly complete death))
same,"H: Italian ryegrass, herbicidal effect (evaluation scale 0-5)",[8],0 (mortality of less than 5% (almost ineffective))
same,"A: barnyardgrass, herbicidal effect (evaluation scale 0-5)",[9],4 (mortality of at least 70% and less than 90%)
same,"N: common chickweed, herbicidal effect (evaluation scale 0-5)",[10],3 (mortality of at least 40% and less than 70%)
same,"L: common lambsquater, herbicidal effect (evaluation scale 0-5)",[11],3 (mortality of at least 40% and less than 70%)
same,"J: common ragweed, herbicidal effect (evaluation scale 0-5)",[12],3 (mortality of at least 40% and less than 70%)
same,"E: giant foxtail, herbicidal effect (evaluation scale 0-5)",[13],2 (mortality of at least 20% and less than 40%)
same,"D: large crabgrass, herbicidal effect (evaluation scale 0-5)",[14],3 (mortality of at least 40% and less than 70%)
same,"M: posumbu knotweed, herbicidal effect (evaluation scale 0-5)",[15],0 (mortality of less than 5% (almost ineffective))
same,"K: redroot pigweed, herbicidal effect (evaluation scale 0-5)",[16],0 (mortality of less than 5% (almost ineffective))
same,"G: water foxtail, herbicidal effect (evaluation scale 0-5)",[17],4 (mortality of at least 70% and less than 90%)
same,"H: Italian ryegrass, herbicidal effect",[18],0 (mortality of less than 5% (almost ineffective))
same,"A: barnyardgrass, herbicidal effect",[19],3 (mortality of at least 40% and less than 70%)
same,"O: beadstraw, herbicidal effect",[20],4 (mortality of at least 70% and less than 90%)
same,"N: common chickweed, herbicidal effect",[21],3 (mortality of at least 40% and less than 70%)
same,"L: common lambsquater, herbicidal effect",[22],2 (mortality of at least 20% and less than 40%)
same,"J: common ragweed, herbicidal effect",[23],3 (mortality of at least 40% and less than 70%)
same,"E: giant foxtail, herbicidal effect",[24],0 (mortality of less than 5% (almost ineffective))
same,"D: large crabgrass, herbicidal effect",[25],0 (mortality of less than 5% (almost ineffective))
same,"M: posumbu knotweed, herbicidal effect",[26],0 (mortality of less than 5% (almost ineffective))
same,"K: redroot pigweed, herbicidal effect",[27],0 (mortality of less than 5% (almost ineffective))
same,"I: velvetleaf, herbicidal effect",[28],0 (mortality of less than 5% (almost ineffective))
same,"G: water foxtail, herbicidal effect",[29],1 (mortality of at least 5% and less than 20%)
